Results reported in patent publication US20170304195A1, “PHARMACEUTICAL FORMULATIONS FOR THE ORAL DELIVERY OF PEPTIDE OR PROTEIN DRUGS” (Cyprumed GmbH, priority 2014, published 2017).
Read-outs that look alike come from different tables or passages of the source.

Tests used:
[1] = in vivo; conditions: Sprague Dawley, rat, sc, 0.1 mg/kg
Method: (§1) Blood was taken from tail vessels at the time points 0, 10, 20, 40, 60, 90, 120 and 180 min after dosing.

[2] = rat, in vivo
Method: as §1

[3] = rat, in vivo; remark: listed apart in the source
Method: (§2) Teriparatide (PTH1-34) was dosed subcutaneously in volume of 1 ml/kg (final concentration 0.024 mg/ml teriparatide) to anaesthetized rats. […] Blood was taken from tail vessels at the time points 0, 10, 20, 40, 60, 90, 120 and 180 min after dosing. The teriparatide plasma concentrations were determined using commercial pTH (1-34) human ELISA kit (Biovendor, EU, cat. number RS-1163.0001).

[4] = pH of dissolved solid powder mixtures (Example 17); format: physicochemical
[5] = in vivo; conditions: Sprague Dawley, rat, sc
Method: as §2

[6] = study comparing aprotinin with aminocaproic acid; cited from earlier work

**Q.** For `CCNC(=O)[C@@H]1CCCN1C(=O)[C@H](CCCNC(=N)N)NC(=O)[C@H](CC(C)C)NC(=O)[C@@H](CC(C)C)NC(=O)[C@H](Cc1ccc(O)cc1)NC(=O)[C@H](CO)NC(=O)[C@H](Cc1c[nH]c2ccccc12)NC(=O)[C@H](Cc1c[nH]cn1)NC(=O)[C@@H]1CCC(=O)N1` [Leuprolide], which AUC(0-t) [1] is on record?
**A.** Its AUC(0-t) is 0.13 µg·h/mL.

**Q.** What about the Cmax [1] of the same compound?
**A.** Its Cmax is 0.0789 ± 0.0147 µg/mL.

**Q.** What about the Tmax [1] of the same compound?
**A.** Its Tmax is 20 to 40 min.

**Q.** And the F [2]?
**A.** Its F is 100 ± 19.5%.

**Q.** Which results are given for `CC[C@H](C)[C@H](NC(=O)[C@H](CCC(=O)O)NC(=O)[C@H](CO)NC(=O)[C@@H](NC(=O)[C@@H](N)CO)C(C)C)C(=O)N[C@@H](CCC(N)=O)C(=O)N[C@@H](CC(C)C)C(=O)N[C@@H](CCSC)C(=O)N[C@@H](Cc1cnc[nH]1)C(=O)N[C@@H](CC(N)=O)C(=O)N[C@@H](CC(C)C)C(=O)NCC(=O)N[C@@H](CCCCN)C(=O)N[C@@H](Cc1cnc[nH]1)C(=O)N[C@@H](CC(C)C)C(=O)N[C@@H](CC(N)=O)C(=O)N[C@@H](CO)C(=O)N[C@@H](CCSC)C(=O)N[C@@H](CCC(=O)O)C(=O)N[C@@H](CCCN=C(N)N)C(=O)N[C@H](C(=O)N[C@@H](CCC(=O)O)C(=O)N[C@@H](Cc1c[nH]c2ccccc12)C(=O)N[C@@H](CC(C)C)C(=O)N[C@@H](CCCN=C(N)N)C(=O)N[C@@H](CCCCN)C(=O)N[C@@H](CCCCN)C(=O)N[C@@H](CC(C)C)C(=O)N[C@@H](CCC(N)=O)C(=O)N[C@@H](CC(=O)O)C(=O)N[C@H](C(=O)N[C@@H](Cc1cnc[nH]1)C(=O)N[C@@H](CC(N)=O)C(=O)N[C@@H](Cc1ccccc1)C(=O)O)C(C)C)C(C)C` [PTH(1-34), Teriparatide]?
**A.** F [3]: 100 ± 23%; plasma half-life of PTH(1-34) compared to s.c. administration, in words [3]: increased plasma half-life; Dissolution pH in 5 ml Aqua purificata ([4]; CuSO4 10 mg, lauroyl carnitine 10 mg, MCC 50 mg, no buffer): 3.6; Dissolution pH in 5 ml Aqua purificata ([4]; CuSO4 10 mg, lauroyl carnitine 10 mg, gelatin capsule 50 mg, no buffer): 4.4; Dissolution pH in 5 ml Aqua purificata ([4]; CuSO4 10 mg, lauroyl carnitine 10 mg, lactose 50 mg, 10 mg TRIS): 6.5; Dissolution pH in 5 ml Aqua purificata ([4]; CuSO4 10 mg, lauroyl carnitine 10 mg, lactose 50 mg, buffer cell empty): 3.2; Dissolution pH in 5 ml Aqua purificata ([4]; CuSO4 10 mg, sucrose laurate 10 mg, lactose 50 mg, no buffer): 5.0; Dissolution pH in 5 ml Aqua purificata ([4]; ZnCl2 10 mg, lauroyl carnitine 10 mg, MCC 50 mg, 5 mg TRIS): 6.3; Dissolution pH in 5 ml Aqua purificata ([4]; ZnCl2 10 mg, lauroyl carnitine 10 mg, MCC 50 mg, no buffer): 3.5; Dissolution pH in 5 ml Aqua purificata ([4]; ZnCl2 10 mg, lauroyl carnitine 10 mg, gelatin capsule 50 mg, 10 mg TRIS): 6.8; Dissolution pH in 5 ml Aqua purificata ([4]; ZnCl2 10 mg, lauroyl carnitine 10 mg, gelatin capsule 50 mg, no buffer): 4.3; Dissolution pH in 5 ml Aqua purificata ([4]; ZnCl2 10 mg, lauroyl carnitine 10 mg, lactose 50 mg, 10 mg TRIS): 7.1; Dissolution pH in 5 ml Aqua purificata ([4]; ZnCl2 10 mg, lauroyl carnitine 10 mg, lactose 50 mg, buffer cell empty): 2.9; Dissolution pH in 5 ml Aqua purificata ([4]; ZnSO4 10 mg, lauroyl carnitine 10 mg, lactose 50 mg, 10 mg TRIS): 7.5; Dissolution pH in 5 ml Aqua purificata ([4]; ZnSO4 10 mg, lauroyl carnitine 10 mg, lactose 50 mg, no buffer): 3.1; Dissolution pH in 5 ml Aqua purificata ([4]; ZnSO4 10 mg, sucrose laurate 10 mg, lactose 50 mg, no buffer): 6.5; Tmax [5]: 10 min; half-life [5]: 44 ± 8 min

**Q.** Which increase of mortality [6] does the source give for Aprotinin here?
**A.** The increase of mortality was 64%.
